Source: PubChem BioAssay AID248 (DTP/NCI, 2004)
Toxic doses and inconclusive results are not listed. Rule as the data show it: active = T/C of 150% or more; inactive = T/C below 125%.

System: L1210 leukemia ip in BDF1 mice, survival T/C
Assay: NCI In Vivo Anticancer Drug Screen. Data for tumor model L1210 Leukemia (intraperitoneal) in B6D2F1 (BDF1) mice
Details: endpoint: mean survival time, higher = longer survival
Outline: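 In this screen, tumor-bearing mice given compound are compared to those given vehicle, and their survival values are reported as a treated-to-control quotient.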

[1] = dose: 100.0 mg/kg/injection, schedule: Q01DX001 (ip), vehicle: saline

Measured: T/C

O=C(Nc1cc(C(F)(F)F)cc(C(F)(F)F)c1)Nc1ccc(Oc2ccccc2Cl)c(S(=O)(=O)O)c1
inactive: dose: 100.0 mg/kg/injection, schedule: Q04DX003 (ip), vehicle: saline sonified 117 % of control | dose: 200.0 mg/kg/injection, schedule: Q04DX003 (ip), vehicle: saline sonified 115 % of control | dose: 400.0 mg/kg/injection, schedule: Q04DX003 (ip), vehicle: saline sonified 121 % of control

CC1=NN(c2cccc(S(=O)(=O)O)c2)C(=O)C1
inactive: dose: 100.0 mg/kg/injection, schedule: Q04DX003 (ip), vehicle: saline with Tween-80 105 % of control | dose: 200.0 mg/kg/injection, schedule: Q04DX003 (ip), vehicle: saline with Tween-80 101 % of control | dose: 400.0 mg/kg/injection, schedule: Q04DX003 (ip), vehicle: saline with Tween-80 89 % of control

CSc1ccc(C(O)Cc2ccc([N+](=O)[O-])cc2)cc1 (centres undefined)
inactive: dose: 100.0 mg/kg/injection, schedule: Q01DX009 (ip), vehicle: Klucel (hydroxypropylcellulose) (HPC) 96 % of control | dose: 100.0 mg/kg/injection, schedule: Q04DX003 (ip), vehicle: Klucel (hydroxypropylcellulose) (HPC) 94 % of control | dose: 200.0 mg/kg/injection, schedule: Q01DX009 (ip), vehicle: Klucel (hydroxypropylcellulose) (HPC) 97 % of control | dose: 200.0 mg/kg/injection, schedule: Q04DX003 (ip), vehicle: Klucel (hydroxypropylcellulose) (HPC) 96 % of control | dose: 400.0 mg/kg/injection, schedule: Q01DX009 (ip), vehicle: Klucel (hydroxypropylcellulose) (HPC) 100 % of control | dose: 400.0 mg/kg/injection, schedule: Q04DX003 (ip), vehicle: Klucel (hydroxypropylcellulose) (HPC) 98 % of control

COC(=O)CC(=O)c1cc(C(C)(C)C)cc(C(C)(C)C)c1
inactive: dose: 100.0 mg/kg/injection, schedule: Q04DX003 (ip), vehicle: DMSO 96 % of control | dose: 200.0 mg/kg/injection, schedule: Q04DX003 (ip), vehicle: DMSO 103 % of control

CCOC(=O)c1nnn(-c2cccnc2)c1-c1ccc([N+](=O)[O-])cc1
inactive: dose: 100.0 mg/kg/injection, schedule: Q04DX002 (ip), vehicle: Klucel (hydroxypropylcellulose) (HPC) 111 % of control | dose: 200.0 mg/kg/injection, schedule: Q04DX002 (ip), vehicle: Klucel (hydroxypropylcellulose) (HPC) 101 % of control | dose: 400.0 mg/kg/injection, schedule: Q04DX002 (ip), vehicle: Klucel (hydroxypropylcellulose) (HPC) 105 % of control

C[S+]1CCCCC1
inactive: dose: 50.0 mg/kg/injection, schedule: Q01DX001 (ip), vehicle: saline 96 % of control | [1] 100 % of control

CN(C)N=Nc1ccc(C(=O)NC(CCC(=O)NN)C(=O)NN)cc1 (centres undefined)
inactive: [1] 96 % of control | dose: 200.0 mg/kg/injection, schedule: Q01DX001 (ip), vehicle: saline 111 % of control | dose: 400.0 mg/kg/injection, schedule: Q01DX001 (ip), vehicle: saline 94 % of control

CSc1cc(=O)n(C2OC(COC(C)=O)C(OC(C)=O)C2OC(C)=O)c(=O)[nH]1 (centres undefined)
inactive: dose: 100.0 mg/kg/injection, schedule: Q01DX005 (ip), vehicle: saline 95 % of control | dose: 200.0 mg/kg/injection, schedule: Q01DX005 (ip), vehicle: saline 97 % of control

O=C(C=C(C(F)(F)F)C(F)(F)F)c1cc(Cl)ccc1Cl
inactive: dose: 12.5 mg/kg/injection, schedule: Q01DX009 (ip), vehicle: saline with Tween-80 110 % of control | dose: 12.5 mg/kg/injection, schedule: Q04DX003 (ip), vehicle: saline with Tween-80 97 % of control | dose: 25.0 mg/kg/injection, schedule: Q01DX009 (ip), vehicle: saline with Tween-80 102 % of control | dose: 25.0 mg/kg/injection, schedule: Q04DX003 (ip), vehicle: saline with Tween-80 100 % of control | dose: 50.0 mg/kg/injection, schedule: Q04DX003 (ip), vehicle: saline with Tween-80 105 % of control
